Test results published in ChEMBL document CHEMBL5724914, “Linking interpersonal differences in gut microbiota composition and drug biotransformation activity” (2024).

What was measured:
[1] = (§1) The drug is tested on Z-019 corresponding to rat gut metagenome with ENA study accession number: PRJEB37062 and ENA sample accession number: ERS12561818 for biotransformation under anaerobic condition. The drug concentrations were measured over 9 timepoints collected between 0 and 24 hours of incubation by liquid-chromatography-coupled mass spectrometry (LC–MS); conditions: 2 µM
[2] = human gut metagenome, 24 h, 2 µM
[3] = human gut metagenome, 24 h, 2 µM; remark: listed apart in the source
[4] = as §1, with “on WLS-052” for “on Z-019”, “to human” for “to rat”, “number: ERS12561747” for “number: ERS12561818”; conditions: 2 µM
[5] = as §1, with “Z-007” for “Z-019”, “ERS12561807” for “ERS12561818”; conditions: 2 µM
[6] = as §1, with “on WLS-077” for “on Z-019”, “to human” for “to rat”, “number: ERS12561750” for “number: ERS12561818”; conditions: 2 µM
[7] = as §1, with “on Z-024” for “on Z-019”, “to pig” for “to rat”, “number: ERS12561823” for “number: ERS12561818”; conditions: 2 µM
[8] = as §1, with “on Z-022” for “on Z-019”, “to mouse” for “to rat”, “number: ERS12561821” for “number: ERS12561818”; conditions: 2 µM
[9] = human gut metagenome, 24 h, 2 µM; remark: listed apart in the source
[10] = human gut metagenome, 24 h, 2 µM; remark: listed apart in the source
[11] = human gut metagenome, 24 h, 2 µM; remark: listed apart in the source
[12] = human gut metagenome, 24 h, 2 µM; remark: listed apart in the source
[13] = human gut metagenome, 24 h, 2 µM; remark: listed apart in the source
[14] = as §1, with “on Z-011” for “on Z-019”, “to mouse” for “to rat”, “number: ERS12561811” for “number: ERS12561818”; conditions: 2 µM
[15] = human gut metagenome, 24 h, 2 µM; remark: listed apart in the source
[16] = as §1, with “Z-014” for “Z-019”, “ERS12561814” for “ERS12561818”; conditions: 2 µM
[17] = as §1, with “on Z-016” for “on Z-019”, “to mouse” for “to rat”, “number: ERS12561815” for “number: ERS12561818”; conditions: 2 µM
[18] = as §1, with “on Z-013” for “on Z-019”, “to rabbit” for “to rat”, “number: ERS12561813” for “number: ERS12561818”; conditions: 2 µM
[19] = as §1, with “on Z-001” for “on Z-019”, “to mouse” for “to rat”, “number: ERS12561801” for “number: ERS12561818”; conditions: 2 µM
[20] = human gut metagenome, 24 h, 2 µM; remark: listed apart in the source
Note: call rule not given here.

| SMILES | Bacterial Biotransformation [1] | Bacterial Biotransformation [2] | Bacterial Biotransformation [3] | Bacterial Biotransformation [4] | Bacterial Biotransformation [5] | Bacterial Biotransformation [6] | Bacterial Biotransformation [7] | Bacterial Biotransformation [8] | Bacterial Biotransformation [9] | Bacterial Biotransformation [10] | Bacterial Biotransformation [11] | Bacterial Biotransformation [12] | Bacterial Biotransformation [13] | Bacterial Biotransformation [14] | Bacterial Biotransformation [15] | Bacterial Biotransformation [16] | Bacterial Biotransformation [17] | Bacterial Biotransformation [18] | Bacterial Biotransformation [19] | Bacterial Biotransformation [20] |
| --- | --- | --- | --- | --- | --- | --- | --- | --- | --- | --- | --- | --- | --- | --- | --- | --- | --- | --- | --- | --- |
| O=C(O)CCc1nc(-c2ccccc2)c(-c2ccccc2)o1 [OXAPROZIN] | Compound NOT metabolized | Compound metabolized | Compound metabolized | Compound metabolized | Compound NOT metabolized | Compound metabolized | Compound NOT metabolized | Compound metabolized | Compound metabolized | Compound metabolized | Compound metabolized | Compound NOT metabolized | Compound metabolized | Compound NOT metabolized | Compound metabolized | Compound NOT metabolized | Compound metabolized | Compound NOT metabolized | Compound NOT metabolized | Compound metabolized |
| NC(CO)(CO)CO.O=C(c1ccccc1)c1ccc2n1CCC2C(=O)O (configuration not stated) [KETOROLAC TROMETHAMINE] | Compound NOT metabolized | Compound metabolized | Compound metabolized | Compound metabolized | Compound NOT metabolized | Compound metabolized | Compound metabolized | Compound metabolized | Compound metabolized | Compound metabolized | Compound metabolized | Compound metabolized | Compound metabolized | Compound NOT metabolized | Compound metabolized | Compound NOT metabolized | Compound metabolized | Compound NOT metabolized | Compound NOT metabolized | Compound metabolized |
| NS(=O)(=O)c1cc2c(cc1Cl)N=C(CSCc1ccccc1)NS2(=O)=O [BENZTHIAZIDE] | Compound NOT metabolized | Compound NOT metabolized | Compound NOT metabolized | Compound NOT metabolized | Compound NOT metabolized | Compound NOT metabolized | Compound metabolized | Compound NOT metabolized | Compound NOT metabolized | Compound NOT metabolized | Compound NOT metabolized | Compound NOT metabolized | Compound NOT metabolized | Compound NOT metabolized | Compound NOT metabolized | Compound NOT metabolized | Compound NOT metabolized | Compound NOT metabolized | Compound NOT metabolized | Compound NOT metabolized |
| Cc1cn([C@H]2C[C@H](N=[N+]=[N-])[C@@H](CO)O2)c(=O)[nH]c1=O [ZIDOVUDINE] | Compound metabolized | Compound NOT metabolized | Compound NOT metabolized | Compound NOT metabolized | Compound metabolized | – | Compound NOT metabolized | Compound metabolized | Compound NOT metabolized | Compound NOT metabolized | Compound NOT metabolized | Compound NOT metabolized | Compound NOT metabolized | Compound metabolized | Compound metabolized | Compound NOT metabolized | Compound NOT metabolized | Compound NOT metabolized | Compound metabolized | Compound NOT metabolized |
| CCC1(c2ccc(N)cc2)CCC(=O)NC1=O (configuration not stated) [AMINOGLUTETHIMIDE] | Compound NOT metabolized | Compound NOT metabolized | Compound NOT metabolized | Compound NOT metabolized | Compound NOT metabolized | Compound NOT metabolized | Compound metabolized | – | Compound NOT metabolized | Compound NOT metabolized | Compound NOT metabolized | Compound NOT metabolized | Compound NOT metabolized | – | Compound NOT metabolized | Compound NOT metabolized | Compound NOT metabolized | Compound NOT metabolized | Compound NOT metabolized | Compound NOT metabolized |
| C[C@@H]1CC[C@H]2[C@@H](C)C(=O)O[C@@H]3O[C@@]4(C)CC[C@@H]1[C@]32OO4 [ARTEMISININ] | Compound metabolized | – | Compound metabolized | Compound metabolized | – | Compound metabolized | Compound metabolized | Compound metabolized | Compound metabolized | Compound metabolized | Compound metabolized | Compound metabolized | Compound metabolized | – | – | Compound metabolized | Compound metabolized | – | – | Compound metabolized |
| COc1c2occc2cc2ccc(=O)oc12 [METHOXSALEN] | Compound NOT metabolized | Compound metabolized | – | Compound metabolized | Compound NOT metabolized | Compound metabolized | Compound metabolized | Compound NOT metabolized | Compound metabolized | Compound metabolized | Compound metabolized | Compound metabolized | Compound metabolized | Compound NOT metabolized | – | Compound NOT metabolized | Compound metabolized | Compound metabolized | Compound NOT metabolized | Compound metabolized |
| CN(C)CCc1c[nH]c2ccc(Cn3cncn3)cc12.O=C(O)c1ccccc1 [RIZATRIPTAN BENZOATE] | Compound NOT metabolized | Compound NOT metabolized | Compound NOT metabolized | Compound NOT metabolized | Compound NOT metabolized | Compound NOT metabolized | Compound NOT metabolized | Compound NOT metabolized | Compound NOT metabolized | – | Compound NOT metabolized | Compound NOT metabolized | Compound NOT metabolized | Compound NOT metabolized | Compound NOT metabolized | Compound NOT metabolized | Compound NOT metabolized | Compound NOT metabolized | Compound NOT metabolized | Compound NOT metabolized |
| CC[C@H](C)C(=O)O[C@H]1C[C@@H](C)C=C2C=C[C@H](C)[C@H](CC[C@@H]3C[C@@H](O)CC(=O)O3)[C@H]21 [LOVASTATIN] | Compound metabolized | Compound NOT metabolized | Compound NOT metabolized | Compound NOT metabolized | Compound NOT metabolized | Compound NOT metabolized | Compound metabolized | Compound metabolized | Compound NOT metabolized | Compound NOT metabolized | Compound NOT metabolized | – | Compound NOT metabolized | Compound metabolized | Compound NOT metabolized | Compound NOT metabolized | Compound NOT metabolized | Compound NOT metabolized | Compound NOT metabolized | Compound NOT metabolized |
